From patent publication US20230233583A1, “USE OF PHYTOCANNABINOIDS FOR TREATING MULTIPLE MYELOMA” (priority 2020, published 2023)

What was measured:
Format in all cases: cell-based, human
U266 = assay: Invasion assay in co-culture of HuOB and U266; settings: 24 hours; for AVERAGE OF CELLS/square (MM cells that invaded the Matrigel): U266 + HuOB co-culture, CBG, CBC, CBN 12.5 μM, CBDV 6.25 μM or 25 μM and 12.5 μM, untreated U266 + HuOB 14.2 ± 0.9; for effect on MM cell invasion, in words: U266 in co-culture with HuOB
Protocol: Invasion assay: HuOB cells (1.5×10^4) were plated on the surface of Matrigel in a BioCoat™ Matrigel® Invasion Chamber, 8.0 μm PET Membrane (Coming®, cod. 354480) and incubated for two days. After, U266 and RPMI (2.5×10^4) were pre-stained with Calcein (1 μM) for two hours, then treated with CBG (12.5 μM), CBC (12.5 μM), CBN (12.5 μM) and CBDV (6.25 μM) and added in the chambers. MM cells with HuOB, untreated, were used as invasion positive control, MM cells without HuOB cells were used as negative control. After 24 hours, the number of MM cells that invaded the Matrigel were analysed via fluorescent microscope. Eight 10× sections images were counted for each chamber.
Invasion assay in co-culture of HuOB and MM cell lines: This study evaluated the effect of phytocannabinoids in reducing the invasion of MM cell lines toward HuOB. HuOB were plated on the surface of Matrigel in the BioCoat™ Matrigel® Invasion Chamber, 8.0 μm PET Membrane (Corning®, cod. 354480) and incubated for two days. After, U266 or RPMI were pre-stained with Calcein (10 μM) for two hours, then treated with CBG (25 μM), CBC (25 μM), CBN (25 μM) and CBDV (12.5 μM) and added in the chambers. MM cells with HuOB, untreated, were used as an invasion positive control, MM cells without HuOB cells were used as a negative control. After 24 hours, the number of MM cells that invaded the Matrigel were analysed via fluorescent microscope. Eight 10× sections images were counted for each chamber.

[1] = tested on: MM cell lines SKO, U266 and RPMI; assay: Alkaline Comet assay; settings: 48 hrs, CBG, CBN, CBDV 25 μM, CBC 75 μM
Protocol: Damage to cellular DNA of the cell lines SKO (upper images in each of FIGS. 21-24), U266 (middle images in each of FIGS. 21-24) and RPMI (lower images in each of FIGS. 21-24) due to exposure to CBG (25 μM; FIG. 21), CBC (75 μM; FIG. 22), CBN (25 μM; FIG. 23) and CBDV (25 μM; FIG. 24) were assessed using the Comet assay.
Alkaline Comet Assay: U266, SKO and RPMI myeloma cell lines were plated in 6-well plates (4×10^4 cell/well) one day before treatment exposure. Semi-confluent cultures were exposed for 48 hrs with 25 μM of CBG, CBN or CBDV or 75 μM of CBC. Controls, treated with vehicle, were included in all series. The Comet assay was performed under alkaline conditions following the ABCAM™ protocol. Briefly, after exposure to the phytocannabinoid, the cells were incubated for 48 hrs in Roswell Park Memorial Institute (RPMI) medium. Then the cells were resuspended in 1×PBS and added to 75 μL of molten (37° C.) 0.5% low-melting-point agarose gel to achieve a cell concentration of 1×10^5 cells/mL. The agarose was pipetted onto the Comet slides. Slides were stored in the dark at 4° C. for 10 min before adding pre-chilled lysis buffer for 45 min. The slides were immersed in freshly prepared alkaline solution (0.25 M NaOH containing […] EDTA, pH 12.6) for 30 min at room temperature. Slides were then removed and washed twice with alkaline solution for 5 min. Gel electrophoresis was performed at 1 V/cm for 30 min (running amperage 3-5 mA with the distance between the two electrodes of 25 cm). The Comet slides were washed with 70% ethanol for 5 min and air-dried for one hour at room temperature. 100 μL of diluted SYBR™ Green solution was placed onto each dried agarose circle. The slides were then read with a fluorescence microscope (LEIKA).
Phytocannabinoids induce necrotic cell death in MM cell lines: To evaluate the cytotoxic mechanism induced by the phytocannabinoids, MM cell lines were treated daily with a cytotoxic dose for each phytocannabinoid (CBG: 25 μM; CBC 75 μM; CBN 25 μM; CBDV 25 μM) for 48 hours and then Annexin-V/PI cell positivity was evaluated by FACS analysis. The results evidenced that all of the phytocannabinoids induced necrotic cell death but had different efficacies (FIGS. 5-16). To confirm the necrotic cell death mechanism, MM cell lines were treated as above and DNA damage was evaluated by H2AX (a marker to examine the DNA damage produced and the subsequent repair of the DNA lesion) Western blot analysis and Comet assay (permits the analysis of DNA damage in single cell preparations). The result confirmed the DNA damage induced by the phytocannabinoid analysed. […]

[2] = tested on: H2AX levels in MM cell lines; assay: Western blot analysis for H2AX; settings: 48 hours, daily; CBG, CBN, CBDV 25 μM, CBC 75 μM
Protocol: 4×10^4 cells were plated in 6 well plates and treated for 48 hours with daily administration of CBG (25 μM; FIG. 17), CBC (75 μM; FIG. 18), CBN (25 μM; FIG. 19) or CBDV (25 μM; FIG. 20). Densitometric analysis was carried out by evaluating two independent experiments by a Chemidoc using the Quantity One software (BioRad, Hercules, USA). H2AX densitometry values were normalized to GAPDH used as loading control and normalized with non-treated cells. Densitometric values shown are the mean±SE of two separate experiments.
Western blot analysis for H2AX: 4×10^4 cells were plated in 6-well plates and treated daily for 48 hours with CBG, CBN or CBDV (25 μM) or CBC (75 μM). Ten micrograms of the myeloma cell line lysates were then separated on a SDS-polyacrylamide gel, transferred onto Hybond-C extra membranes (GE Healthcare), blocked with 5% of Bovine Serum Albumin (BSA) in phosphate buffered saline (PBS)-Tween 20, immunoblotted with rabbit anti-phospho-histone H2AX (Ser139) (1:1000, #9718, Cell Signaling) and rabbit anti-glyceraldehyde-3-phosphate dehydrogenase (GAPDH, 1:3000, #2118, OriGene, Rockville, Md., USA) antibodies incubated overnight and then incubated with their respective HRP-conjugated anti-rabbit (1:2000, Cell Signaling) antibodies for 1 hour. The detection was performed using the LiteAblot™ PLUS or the LiteAblot™ TURBO (EuroClone, Milano, Italy) kits and densitometric analysis was carried out by evaluating three independent experiments by a Chemidoc using the Quantity One software (BioRad, Hercules, USA). H2AX densitometry values were normalized to GAPDH used as loading control and normalized with non-treated cells. Densitometric values shown are the mean±SE of three separate experiments.
Phytocannabinoids induce necrotic cell death in MM cell lines: To evaluate the cytotoxic mechanism induced by the phytocannabinoids, MM cell lines were treated daily with a cytotoxic dose for each phytocannabinoid (CBG: 25 μM; CBC 75 μM; CBN 25 μM; CBDV 25 μM) for 48 hours and then Annexin-V/PI cell positivity was evaluated by FACS analysis. The results evidenced that all of the phytocannabinoids induced necrotic cell death but had different efficacies (FIGS. 5-16). To confirm the necrotic cell death mechanism, MM cell lines were treated as above and DNA damage was evaluated by H2AX (a marker to examine the DNA damage produced and the subsequent repair of the DNA lesion) Western blot analysis and Comet assay (permits the analysis of DNA damage in single cell preparations). The result confirmed the DNA damage induced by the phytocannabinoid analysed. In particular, an increase of H2AX levels were observed by Western blot (FIGS. 17-20) and DNA damage by Comet assay that evidenced structures resembling comets in the treated cell lines (FIGS. 21-24).

| SMILES | AVERAGE OF CELLS/square (MM cells that invaded the Matrigel) (U266) [CELLS/square] | DNA damage by Comet assay, in words [1] | H2AX levels by Western blot, in words [2] | effect on MM cell invasion, in words (U266) |
| --- | --- | --- | --- | --- |
| CCCCCc1cc(O)c2c(c1)OC(C)(CCC=C(C)C)C=C2 (centres unmarked) [CBC, 2-methyl-2-(4-methylpent-3-enyl)-7-pentylchromen-5-ol] | 12.5 ± 1.1 | induce DNA damage | increased H2AX levels |  |
| C=C(C)[C@@H]1CCC(C)=C[C@H]1c1c(O)cc(CCC)cc1O [CBDV, 2-[(1R,6R)-3-methyl-6-prop-1-en-2-ylcyclohex-2-en-1-yl]-5-propylbenzene-1,3-diol] | 11.2 ± 1.1 | induce DNA damage | increased H2AX levels |  |
| CCCCCc1cc(O)c(C/C=C(\C)CCC=C(C)C)c(O)c1 [CBG, 2-[(2E)-3,7-dimethylocta-2,6-dienyl]-5-pentylbenzene-1,3-diol] | 3.2 ± 0.2 | induce DNA damage | increased H2AX levels | higher activity |
| CCCCCc1cc(O)c2c(c1)OC(C)(C)c1ccc(C)cc1-2 [CBN, 6,6,9-trimethyl-3-pentylbenzo[c]chromen-1-ol] | 7.0 ± 0.2 | induce DNA damage | increased H2AX levels | higher activity |
